Assay results published in ChEMBL document CHEMBL1155658, “Isolation and structures of schleicherastatins 1-7 and schleicheols 1 and 2 from the teak forest medicinal tree Schleichera oleosa” (2000).
≈ marks a conversion by molar mass, not a printed value. Values belong to the compound of their own block, whether it stands above or below them.

How the values were obtained:
Type in all cases: functional
P388 = assay: Growth inhibition of mouse P388 cells
BXPC-3 = assay: Growth inhibition of human BXPC3 cells
OVCAR-3 = assay: Growth inhibition of human OVCAR-3 cells
SF-295 = assay: Growth inhibition of human SF295 cells
[1] = Growth inhibition of human prostate cancer cells; conditions: Cancer cell lines
NCI-H460 = assay: Growth inhibition of human NCI-H460 cells
KM-20L2 = assay: Growth inhibition of human KM20L2 cells

Structure (SMILES): COC(=O)c1ccc(O)c(O)c1 [METHYL PROTOCATECHUATE]
EC50 (P388; read-out: ED50 (the source's name)): 1.4 µg/mL (≈ 8.33 µM)

Structure (SMILES): CC[C@H](CC[C@@H](C)C1CC[C@H]2[C@@H]3[C@@H](OC)C=C4C[C@@H](O)CC[C@]4(C)[C@H]3CC[C@]12C)C(C)C (some centres not stated) [SCHLEICHEOL 1]
GI50 (BXPC-3): 3.3 µg/mL (≈ 7.42 µM) | GI50 (P388): 14 µg/mL (≈ 31.5 µM) | GI50 (OVCAR-3): 2.1 µg/mL (≈ 4.72 µM) | GI50 (SF-295): 3.2 µg/mL (≈ 7.2 µM) | GI50 [1]: 1.8 µg/mL (≈ 4.05 µM) | GI50 (NCI-H460): 1.8 µg/mL (≈ 4.05 µM) | GI50 (KM-20L2): 2.5 µg/mL (≈ 5.62 µM)

Structure (SMILES): CC[C@H](CC[C@@H](C)C1CC[C@H]2C3[C@H](OC)C=C4C[C@@H](O)CC[C@]4(C)[C@H]3CC[C@]12C)C(C)C (some centres not stated) [SCHLEICHEOL 2]
GI50 (BXPC-3): 1.4 µg/mL (≈ 3.15 µM) | GI50 (P388): 15 µg/mL (≈ 33.7 µM) | GI50 (OVCAR-3): 2.5 µg/mL (≈ 5.62 µM) | GI50 (SF-295): 1.9 µg/mL (≈ 4.27 µM) | GI50 [1]: 1.6 µg/mL (≈ 3.6 µM) | GI50 (NCI-H460): 2.2 µg/mL (≈ 4.95 µM) | GI50 (KM-20L2): 1.2 µg/mL (≈ 2.7 µM)

Structure (SMILES): CO[C@H]1C=C2C[C@@H](O)CC[C@]2(C)[C@H]2CC[C@]3(C)C([C@H](C)[C@H](O)C[C@@H](C)C(C)C)CC[C@H]3[C@H]12 (some centres not stated) [SCHLEICHERASTATIN 3]
GI50 (P388): 1.2 µg/mL (≈ 2.69 µM)

Structure (SMILES): CO[C@H]1C=C2C[C@@H](O)CC[C@]2(C)[C@H]2CC[C@]3(C)C([C@H](C)[C@H](O)C[C@H](C)C(C)C)CC[C@H]3[C@H]12 (some centres not stated) [SCHLEICHERASTATIN 4]
GI50 (P388): 1.2 µg/mL (≈ 2.69 µM)

Structure (SMILES): CC[C@H](C[C@@H](O)[C@@H](C)C1CC[C@H]2[C@@H]3C(=O)C=C4C[C@@H](O)CC[C@]4(C)[C@H]3CC[C@]12C)C(C)C (some centres not stated) [SCHLEICHERASTATIN 5]
GI50 (P388): 0.34 µg/mL (≈ 0.765 µM)

Structure (SMILES): CC(C)[C@@H](C)C[C@@H](O)[C@@H](C)C1CC[C@H]2[C@@H]3C(=O)C=C4C[C@@H](O)CC[C@]4(C)[C@H]3CC[C@]12C (some centres not stated) [SCHLEICHERASTATIN 7]
GI50 (P388): 0.78 µg/mL (≈ 1.81 µM)

The remaining compounds from weak to strong by GI50 (P388), led by results:

GI50 (P388): 0.78 µg/mL (≈ 1.81 µM)
Structure (SMILES): CC(C)[C@H](C)C[C@@H](O)[C@@H](C)C1CC[C@H]2[C@@H]3C(=O)C=C4C[C@@H](O)CC[C@]4(C)[C@H]3CC[C@]12C (some centres not stated) [SCHLEICHERASTATIN 6]

GI50 (P388): 0.72 µg/mL (≈ 1.56 µM)
Structure (SMILES): CC[C@H](C[C@@H](O)[C@@H](C)[C@H]1CC[C@H]2[C@@H]3[C@H](OC)C=C4C[C@@H](O)CC[C@]4(C)[C@H]3CC[C@]12C)C(C)C [SCHLEICHERASTATIN 2]

GI50 (P388): 0.19 µg/mL (≈ 0.412 µM)
Structure (SMILES): CC[C@H](C[C@@H](O)[C@@H](C)[C@H]1CC[C@H]2[C@@H]3[C@@H](OC)C=C4C[C@@H](O)CC[C@]4(C)[C@H]3CC[C@]12C)C(C)C [SCHLEICHERASTATIN 1]
